Laboratory results as given in ChEMBL document CHEMBL2150974 (J Med Chem, 2012).
pIC50: −log10 of the molar value. The source made the active and inactive calls. The rule behind the calls is not given here.

Columns and labels:
[1] = biological target: Aurora kinase B (Homo sapiens) (UniProt Q96GD4); test: Inhibition of AuroraB at 10 uM
[2] = biological target: RAC-alpha serine/threonine-protein kinase (Homo sapiens) (UniProt P31749); test: Inhibition of AKT1 at 10 uM
[3] = system: Serine/threonine-protein kinase B-raf (Homo sapiens), P15056 [V600E]; test: Inhibition of BRAF V600E mutant at 10 uM
[4] = biological target: Focal adhesion kinase 1 (Homo sapiens) (UniProt Q05397); test: Inhibition of FAK at 10 uM
[5] = biological target: Vascular endothelial growth factor receptor 2 (Homo sapiens) (UniProt P35968); test: Inhibition of VEGFR2 at 10 uM
[6] = biological target: T1, Mitogen-activated protein kinase 14 (Homo sapiens, UniProt Q16539); test: Inhibition of p38alpha-dependent TNFalpha production in human whole blood
[7] = biological target: T1, Mitogen-activated protein kinase 14; test: Inhibition of p38alpha by immunosorbent based kinase assay
[8] = biological target: T2, Serine/threonine-protein kinase PLK4 (Homo sapiens) (UniProt O00444); test: Inhibition of SAK at 10 uM
T2 sequence (whole entry): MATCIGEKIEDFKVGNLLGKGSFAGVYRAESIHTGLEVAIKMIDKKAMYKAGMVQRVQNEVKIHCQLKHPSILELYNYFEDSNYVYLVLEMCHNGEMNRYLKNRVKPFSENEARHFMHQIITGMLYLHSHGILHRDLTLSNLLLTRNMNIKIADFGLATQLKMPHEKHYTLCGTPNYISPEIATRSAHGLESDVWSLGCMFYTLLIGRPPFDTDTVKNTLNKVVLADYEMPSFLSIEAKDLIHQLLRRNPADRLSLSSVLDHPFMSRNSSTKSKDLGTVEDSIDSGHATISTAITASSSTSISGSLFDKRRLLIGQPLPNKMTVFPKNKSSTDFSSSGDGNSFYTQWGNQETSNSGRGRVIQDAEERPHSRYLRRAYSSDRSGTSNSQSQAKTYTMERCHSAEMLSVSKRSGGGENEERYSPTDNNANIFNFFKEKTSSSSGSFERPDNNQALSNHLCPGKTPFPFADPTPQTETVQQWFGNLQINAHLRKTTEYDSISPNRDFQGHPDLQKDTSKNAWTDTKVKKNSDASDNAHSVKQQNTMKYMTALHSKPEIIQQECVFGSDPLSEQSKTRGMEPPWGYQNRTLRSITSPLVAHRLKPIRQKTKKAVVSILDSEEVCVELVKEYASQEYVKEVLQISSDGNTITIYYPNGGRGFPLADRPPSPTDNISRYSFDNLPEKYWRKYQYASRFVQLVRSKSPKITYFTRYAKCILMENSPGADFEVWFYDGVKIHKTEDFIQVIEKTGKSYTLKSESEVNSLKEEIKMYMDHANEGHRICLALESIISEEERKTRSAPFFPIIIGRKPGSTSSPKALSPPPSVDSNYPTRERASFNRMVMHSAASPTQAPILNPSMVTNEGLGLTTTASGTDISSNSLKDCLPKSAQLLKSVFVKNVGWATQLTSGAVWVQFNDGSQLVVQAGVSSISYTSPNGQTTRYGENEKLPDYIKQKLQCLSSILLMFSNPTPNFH

[9] = biological target: Proto-oncogene tyrosine-protein kinase Src (Homo sapiens) (UniProt P12931); test: Inhibition of SRC at 10 uM
[10] = biological target: BDNF/NT-3 growth factors receptor (Homo sapiens) (UniProt Q16620); test: Inhibition of TRKB at 10 uM
[11] = biological target: Casein kinase II subunit alpha (Homo sapiens) (UniProt P68400); test: Inhibition of CK2alpha1 at 10 uM
[12] = biological target: Hepatocyte growth factor receptor (Homo sapiens) (UniProt P08581); test: Inhibition of MET at 10 uM
[13] = biological target: Serine/threonine-protein kinase PLK1 (Homo sapiens) (UniProt P53350); test: Inhibition of PLK1 at 10 uM
[14] = biological target: T3, NUAK family SNF1-like kinase 1 (Homo sapiens) (UniProt O60285); test: Inhibition of ARK5 at 10 uM
T3 sequence (whole entry): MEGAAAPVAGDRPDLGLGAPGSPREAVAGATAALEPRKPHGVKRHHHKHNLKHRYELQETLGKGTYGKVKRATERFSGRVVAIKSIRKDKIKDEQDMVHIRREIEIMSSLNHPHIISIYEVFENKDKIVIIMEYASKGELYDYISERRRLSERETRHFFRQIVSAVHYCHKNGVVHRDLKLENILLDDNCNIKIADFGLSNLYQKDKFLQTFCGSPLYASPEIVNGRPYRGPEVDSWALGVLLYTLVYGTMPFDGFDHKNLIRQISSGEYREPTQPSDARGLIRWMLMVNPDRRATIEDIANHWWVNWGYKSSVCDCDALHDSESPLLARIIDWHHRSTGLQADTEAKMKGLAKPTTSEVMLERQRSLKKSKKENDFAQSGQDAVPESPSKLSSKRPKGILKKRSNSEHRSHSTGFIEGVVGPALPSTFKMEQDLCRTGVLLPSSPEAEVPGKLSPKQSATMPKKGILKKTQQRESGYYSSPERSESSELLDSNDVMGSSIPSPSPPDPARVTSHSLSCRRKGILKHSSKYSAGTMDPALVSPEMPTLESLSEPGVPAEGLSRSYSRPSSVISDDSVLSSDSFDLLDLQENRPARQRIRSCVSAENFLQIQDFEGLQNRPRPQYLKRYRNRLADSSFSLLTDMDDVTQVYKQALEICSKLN

[15] = biological target: Serine/threonine-protein kinase N1 (Homo sapiens) (UniProt Q16512); test: Inhibition of PRK1 at 10 uM
[16] = biological target: Insulin-like growth factor 1 receptor (Homo sapiens) (UniProt P08069); test: Inhibition of IGF1R at 10 uM
[17] = biological target: Tyrosine-protein kinase receptor UFO (Homo sapiens) (UniProt P30530); test: Inhibition of AXL at 10 uM
[18] = biological target: Insulin receptor (Homo sapiens) (UniProt P06213); test: Inhibition of INSR at 10 uM

Chain of Proto-oncogene tyrosine-protein kinase Src (Homo sapiens) (P12931 2-536 limits assumed): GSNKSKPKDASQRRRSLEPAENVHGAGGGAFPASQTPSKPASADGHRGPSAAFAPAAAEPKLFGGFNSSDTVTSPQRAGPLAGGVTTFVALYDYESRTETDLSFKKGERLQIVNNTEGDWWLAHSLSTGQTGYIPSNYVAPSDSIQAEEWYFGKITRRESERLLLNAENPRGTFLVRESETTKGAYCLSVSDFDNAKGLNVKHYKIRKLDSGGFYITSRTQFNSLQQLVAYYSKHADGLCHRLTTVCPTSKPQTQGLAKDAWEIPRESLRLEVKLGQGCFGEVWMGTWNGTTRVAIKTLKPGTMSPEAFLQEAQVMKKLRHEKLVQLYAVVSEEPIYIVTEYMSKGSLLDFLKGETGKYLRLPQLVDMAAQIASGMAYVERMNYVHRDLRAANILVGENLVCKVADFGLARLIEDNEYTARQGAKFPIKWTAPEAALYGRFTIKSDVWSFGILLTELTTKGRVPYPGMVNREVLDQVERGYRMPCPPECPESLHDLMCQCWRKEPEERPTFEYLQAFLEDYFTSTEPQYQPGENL
T1 sequence (Q16539 whole entry): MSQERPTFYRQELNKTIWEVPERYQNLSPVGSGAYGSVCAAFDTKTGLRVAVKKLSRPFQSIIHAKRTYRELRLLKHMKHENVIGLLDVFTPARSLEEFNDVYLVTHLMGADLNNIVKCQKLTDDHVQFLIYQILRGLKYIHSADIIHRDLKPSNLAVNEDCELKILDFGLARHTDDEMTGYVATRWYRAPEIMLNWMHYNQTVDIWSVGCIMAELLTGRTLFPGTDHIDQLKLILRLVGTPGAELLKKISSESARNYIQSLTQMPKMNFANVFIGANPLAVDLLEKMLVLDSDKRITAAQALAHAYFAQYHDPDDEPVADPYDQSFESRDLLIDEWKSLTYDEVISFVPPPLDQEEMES
Chain of Casein kinase II subunit alpha (Homo sapiens) (P68400 whole entry, looked up): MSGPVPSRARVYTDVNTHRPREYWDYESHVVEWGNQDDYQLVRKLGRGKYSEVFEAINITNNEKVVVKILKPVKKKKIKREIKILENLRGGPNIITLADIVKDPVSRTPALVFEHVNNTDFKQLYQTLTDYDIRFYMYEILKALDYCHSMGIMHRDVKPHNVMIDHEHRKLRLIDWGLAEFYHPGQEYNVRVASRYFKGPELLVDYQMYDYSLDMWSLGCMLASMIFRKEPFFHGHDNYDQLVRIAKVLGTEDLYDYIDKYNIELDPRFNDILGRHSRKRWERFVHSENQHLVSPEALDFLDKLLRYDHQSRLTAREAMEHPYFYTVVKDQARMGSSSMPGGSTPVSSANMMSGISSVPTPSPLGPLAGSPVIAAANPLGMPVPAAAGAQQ
Chain of Hepatocyte growth factor receptor (Homo sapiens) (P08581 whole entry): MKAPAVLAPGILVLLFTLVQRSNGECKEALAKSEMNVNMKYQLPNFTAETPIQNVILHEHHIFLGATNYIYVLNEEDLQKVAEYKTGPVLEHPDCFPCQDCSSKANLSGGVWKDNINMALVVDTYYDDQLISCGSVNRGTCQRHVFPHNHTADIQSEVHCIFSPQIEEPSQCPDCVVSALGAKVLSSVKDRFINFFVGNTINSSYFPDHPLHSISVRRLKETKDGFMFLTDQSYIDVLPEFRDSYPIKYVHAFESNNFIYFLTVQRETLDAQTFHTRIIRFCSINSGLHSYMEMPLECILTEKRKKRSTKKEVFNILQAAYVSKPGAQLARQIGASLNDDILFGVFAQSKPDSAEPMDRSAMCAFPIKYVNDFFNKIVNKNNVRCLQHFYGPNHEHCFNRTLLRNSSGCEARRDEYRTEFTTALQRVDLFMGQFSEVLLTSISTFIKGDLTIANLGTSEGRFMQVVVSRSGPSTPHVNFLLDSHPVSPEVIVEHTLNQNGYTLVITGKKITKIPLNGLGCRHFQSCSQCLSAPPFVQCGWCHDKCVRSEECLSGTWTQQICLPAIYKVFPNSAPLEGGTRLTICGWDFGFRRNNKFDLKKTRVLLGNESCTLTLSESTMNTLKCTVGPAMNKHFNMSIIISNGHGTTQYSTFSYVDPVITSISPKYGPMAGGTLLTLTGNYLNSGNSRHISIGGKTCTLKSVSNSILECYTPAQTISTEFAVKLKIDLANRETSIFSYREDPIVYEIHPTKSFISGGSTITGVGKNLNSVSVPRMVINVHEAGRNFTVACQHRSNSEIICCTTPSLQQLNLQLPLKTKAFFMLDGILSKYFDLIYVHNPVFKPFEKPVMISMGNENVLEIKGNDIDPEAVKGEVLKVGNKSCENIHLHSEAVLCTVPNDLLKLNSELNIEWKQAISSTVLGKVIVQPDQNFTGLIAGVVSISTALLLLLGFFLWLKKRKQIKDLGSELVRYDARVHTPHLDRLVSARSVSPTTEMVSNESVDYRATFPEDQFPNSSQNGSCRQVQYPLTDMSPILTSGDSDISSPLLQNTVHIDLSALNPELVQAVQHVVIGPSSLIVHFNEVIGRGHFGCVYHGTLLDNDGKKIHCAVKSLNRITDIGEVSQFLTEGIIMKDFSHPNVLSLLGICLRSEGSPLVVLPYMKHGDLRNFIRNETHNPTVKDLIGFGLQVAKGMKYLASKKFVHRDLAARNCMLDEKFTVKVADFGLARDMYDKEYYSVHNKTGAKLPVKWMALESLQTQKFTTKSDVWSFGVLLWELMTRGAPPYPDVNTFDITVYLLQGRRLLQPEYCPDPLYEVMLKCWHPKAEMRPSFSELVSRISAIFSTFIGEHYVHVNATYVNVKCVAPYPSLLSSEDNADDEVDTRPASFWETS
Chain of Aurora kinase B (Homo sapiens) (Q96GD4 whole entry): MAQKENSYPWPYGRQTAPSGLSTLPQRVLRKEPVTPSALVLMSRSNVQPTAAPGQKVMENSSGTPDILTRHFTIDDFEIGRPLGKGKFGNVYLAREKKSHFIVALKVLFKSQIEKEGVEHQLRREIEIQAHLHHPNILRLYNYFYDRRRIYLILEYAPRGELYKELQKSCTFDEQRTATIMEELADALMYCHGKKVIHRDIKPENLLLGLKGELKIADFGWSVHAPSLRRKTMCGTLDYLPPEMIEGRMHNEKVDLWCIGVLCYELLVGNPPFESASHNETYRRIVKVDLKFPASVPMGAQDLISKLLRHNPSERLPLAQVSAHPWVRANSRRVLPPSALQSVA
Chain of BDNF/NT-3 growth factors receptor (Homo sapiens) (Q16620 32-822 limits assumed): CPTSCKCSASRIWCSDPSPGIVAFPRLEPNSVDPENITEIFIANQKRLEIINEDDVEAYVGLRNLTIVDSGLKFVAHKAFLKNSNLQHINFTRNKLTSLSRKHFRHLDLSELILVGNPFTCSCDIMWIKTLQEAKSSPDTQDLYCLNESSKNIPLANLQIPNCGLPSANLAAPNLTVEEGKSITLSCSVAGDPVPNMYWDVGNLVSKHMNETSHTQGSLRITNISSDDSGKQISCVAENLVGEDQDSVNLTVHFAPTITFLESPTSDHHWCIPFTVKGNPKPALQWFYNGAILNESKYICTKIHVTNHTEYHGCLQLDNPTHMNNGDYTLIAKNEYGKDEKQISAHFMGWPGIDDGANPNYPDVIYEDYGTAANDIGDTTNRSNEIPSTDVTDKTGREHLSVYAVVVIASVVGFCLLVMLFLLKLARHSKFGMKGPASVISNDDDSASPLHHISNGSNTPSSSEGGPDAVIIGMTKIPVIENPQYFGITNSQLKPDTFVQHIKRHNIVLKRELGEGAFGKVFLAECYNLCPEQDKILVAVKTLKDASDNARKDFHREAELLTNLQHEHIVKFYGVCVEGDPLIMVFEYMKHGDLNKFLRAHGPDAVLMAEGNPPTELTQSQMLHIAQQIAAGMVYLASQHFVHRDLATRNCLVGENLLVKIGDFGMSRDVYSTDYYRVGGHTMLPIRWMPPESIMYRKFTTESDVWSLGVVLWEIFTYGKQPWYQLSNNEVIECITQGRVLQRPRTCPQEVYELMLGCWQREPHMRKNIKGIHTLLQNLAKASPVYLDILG
Chain of Serine/threonine-protein kinase N1 (Homo sapiens) (Q16512 2-942 limits assumed): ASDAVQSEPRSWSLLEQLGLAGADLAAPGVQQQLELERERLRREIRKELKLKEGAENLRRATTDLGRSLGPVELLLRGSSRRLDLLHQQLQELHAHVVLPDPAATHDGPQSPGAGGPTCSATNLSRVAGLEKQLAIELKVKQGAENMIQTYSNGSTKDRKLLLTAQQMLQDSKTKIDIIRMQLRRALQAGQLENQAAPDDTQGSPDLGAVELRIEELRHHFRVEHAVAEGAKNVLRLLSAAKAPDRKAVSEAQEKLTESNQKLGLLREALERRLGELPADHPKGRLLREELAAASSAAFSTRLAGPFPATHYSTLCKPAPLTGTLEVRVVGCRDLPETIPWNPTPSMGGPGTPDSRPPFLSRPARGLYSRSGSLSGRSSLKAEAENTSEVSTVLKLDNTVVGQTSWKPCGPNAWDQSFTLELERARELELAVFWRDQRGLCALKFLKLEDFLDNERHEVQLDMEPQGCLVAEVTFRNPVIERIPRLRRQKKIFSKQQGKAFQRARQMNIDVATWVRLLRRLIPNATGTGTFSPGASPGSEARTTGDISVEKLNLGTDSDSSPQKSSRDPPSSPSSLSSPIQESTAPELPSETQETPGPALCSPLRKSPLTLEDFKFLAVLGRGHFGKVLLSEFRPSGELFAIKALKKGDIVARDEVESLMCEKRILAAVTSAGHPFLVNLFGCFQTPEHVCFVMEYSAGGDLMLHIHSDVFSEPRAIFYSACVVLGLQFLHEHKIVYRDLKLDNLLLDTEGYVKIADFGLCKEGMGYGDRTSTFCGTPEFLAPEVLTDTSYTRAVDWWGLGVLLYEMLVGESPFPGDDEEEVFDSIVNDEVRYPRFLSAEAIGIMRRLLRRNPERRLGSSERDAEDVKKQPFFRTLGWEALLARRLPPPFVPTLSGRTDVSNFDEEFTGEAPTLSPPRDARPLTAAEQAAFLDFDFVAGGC

Row | Compound | inhibition [1] | inhibition [2] | inhibition [3] | inhibition [4] | inhibition [5] | pIC50 [6] | pIC50 [7] | inhibition [8] | inhibition [9] | inhibition [10] | inhibition [11] | inhibition [12] | inhibition [13] | inhibition [14] | inhibition [15] | inhibition [16] | inhibition [17] | inhibition [18]
1 | O=C1c2ccc(Nc3ccc(F)cc3F)cc2CCc2c(O)cccc21 | inactive | inactive | inactive | inactive | inactive | 4.43 | 7.70 | inactive | inactive | inactive | inactive | inactive | inactive | inactive | inactive | inactive | inactive | inactive
2 | O=C1c2ccc(Nc3ccc(F)cc3F)cc2CCc2cc(OC[C@H](O)CO)ccc21 | inactive | inactive | inactive | inactive | inactive | 4.98 | 7.52 | inactive | inactive | inactive | inactive | inactive | inactive | inactive | inactive | inactive | inactive | inactive
3 | CC1(C)OC[C@@H](CCOc2ccc3c(c2)C(=O)c2ccc(Nc4ccc(F)cc4F)cc2CC3)O1 | inactive | inactive | inactive | inactive | inactive | 6.49 | 8.00 | inactive | inactive | inactive | inactive | inactive | inactive | inactive | inactive | inactive | inactive | inactive
4 | O=C1c2ccc(Nc3ccc(F)cc3F)cc2CCc2ccc(OCCCO)cc21 | inactive | inactive | inactive | inactive | inactive | 6.72 | 8.10 | inactive | inactive | inactive | inactive | inactive | inactive | inactive | inactive | inactive | inactive | inactive
5 | O=C1c2ccc(Nc3ccc(F)cc3F)cc2CCc2cc(OC[C@@H](O)CO)ccc21 | inactive | inactive | inactive | inactive | inactive | 5.28 | 8.30 | inactive | inactive | inactive | inactive | inactive | inactive | inactive | inactive | inactive | inactive | inactive
6 | O=C1c2ccc(Nc3ccc(F)cc3F)cc2CCc2ccc(OCCCN3CCOCC3)cc21 | inactive | inactive | inactive | inactive | inactive | 7.10 | 8.10 | inactive | inactive | inactive | inactive | inactive | inactive | inactive | inactive | inactive | inactive | inactive

The remaining compounds from weak to strong by pIC50 [6], led by results:

Row | inhibition [1] | inhibition [2] | inhibition [3] | inhibition [4] | inhibition [5] | pIC50 [6] | pIC50 [7] | inhibition [8] | inhibition [9] | inhibition [10] | inhibition [11] | inhibition [12] | inhibition [13] | inhibition [14] | inhibition [15] | inhibition [16] | inhibition [17] | inhibition [18] | Compound
7 | inactive | inactive | inactive | inactive | inactive | 4.10 | 7.10 | inactive | inactive | inactive | inactive | inactive | inactive | inactive | inactive | inactive | inactive | inactive | COc1cccc2c1CCc1cc(Nc3ccc(F)cc3F)ccc1C2=O
8 | inactive | inactive | inactive | inactive | inactive | 5.34 | 6.25 | inactive | inactive | inactive | inactive | inactive | inactive | inactive | inactive | inactive | inactive | inactive | COc1ccc2c(c1)C(=O)c1ccc(Nc3ccccc3Cl)cc1CC2
9 | inactive | inactive | inactive | inactive | inactive | 5.72 | 7.40 | inactive | inactive | inactive | inactive | inactive | inactive | inactive | inactive | inactive | inactive | inactive | COc1ccc2c(c1)C(=O)c1ccc(Nc3ccc(F)c(C)c3)cc1CC2
